Test results taken from PubChem BioAssay AID2060619 (Molecular Pharmacology Branch, DTP, NCI, 2025).

System: 323965-272-R-J2-PDC complex spheroid viability
Assay: Anticancer human tumor 323965-272-R-J2-PDC patient-derived pancreatic carcinoma cell line growth inhibition [CLK]
Conditions: for IC50: curve of first compound; for viability, T/C: stronger effect = lower value; active means viability on the fitted dose curve at most 10% of control; inactive means the rest
How it was run: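 Multi-cell-type spheroids combined patient-derived tumor cells with HUVEC endothelial cells and human mesenchymal stem cells. Paired agents were dosed in half-log steps down from about clinical Cmax, or from 10 microM where Cmax was unknown.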

[1] = second compound 0.0316 µM, first compound 0.00949 µM
[2] = second compound 0.0316 µM, first compound 0.03 µM
[3] = second compound 0.0316 µM, first compound 0.0949 µM
[4] = second compound 0.0316 µM, first compound 0.3 µM
[5] = second compound 0.1 µM, first compound 0.00949 µM
[6] = second compound 0.1 µM, first compound 0.03 µM
[7] = second compound 0.1 µM, first compound 0.0949 µM
[8] = second compound 0.1 µM, first compound 0.3 µM
[9] = second compound 0.316 µM, first compound 0.00949 µM
[10] = second compound 0.316 µM, first compound 0.03 µM
[11] = second compound 0.316 µM, first compound 0.0949 µM
[12] = second compound 0.316 µM, first compound 0.3 µM
[13] = second compound 1 µM, first compound 0.00949 µM
[14] = second compound 1 µM, first compound 0.03 µM
[15] = second compound 1 µM, first compound 0.0949 µM
[16] = second compound 1 µM, first compound 0.3 µM
[17] = second compound 3.16 µM, first compound 0.00949 µM
[18] = second compound 3.16 µM, first compound 0.03 µM
[19] = second compound 3.16 µM, first compound 0.0949 µM
[20] = second compound 3.16 µM, first compound 0.3 µM
[21] = second compound 10 µM, first compound 0.00949 µM
[22] = second compound 10 µM, first compound 0.03 µM
[23] = second compound 10 µM, first compound 0.0949 µM
[24] = second compound 10 µM, first compound 0.3 µM
[25] = second compound 0.0316 µM, first compound 0.0316 µM
[26] = second compound 0.0316 µM, first compound 0.1 µM
[27] = second compound 0.0316 µM, first compound 0.316 µM
[28] = second compound 0.0316 µM, first compound 1 µM
[29] = second compound 0.0316 µM, first compound 3.16 µM
[30] = second compound 0.0316 µM, first compound 10 µM
[31] = second compound 0.1 µM, first compound 0.0316 µM
[32] = second compound 0.1 µM, first compound 0.1 µM
[33] = second compound 0.1 µM, first compound 0.316 µM
[34] = second compound 0.1 µM, first compound 1 µM
[35] = second compound 0.1 µM, first compound 3.16 µM
[36] = second compound 0.1 µM, first compound 10 µM
[37] = second compound 0.316 µM, first compound 0.0316 µM
[38] = second compound 0.316 µM, first compound 0.1 µM
[39] = second compound 0.316 µM, first compound 0.316 µM
[40] = second compound 0.316 µM, first compound 1 µM
[41] = second compound 0.316 µM, first compound 3.16 µM
[42] = second compound 0.316 µM, first compound 10 µM
[43] = second compound 1 µM, first compound 0.0316 µM
[44] = second compound 1 µM, first compound 0.1 µM
[45] = second compound 1 µM, first compound 0.316 µM
[46] = second compound 1 µM, first compound 1 µM
[47] = second compound 1 µM, first compound 3.16 µM
[48] = second compound 1 µM, first compound 10 µM
[49] = second compound 3.16 µM, first compound 0.0316 µM
[50] = second compound 3.16 µM, first compound 0.1 µM
[51] = second compound 3.16 µM, first compound 0.316 µM
[52] = second compound 3.16 µM, first compound 1 µM
[53] = second compound 3.16 µM, first compound 3.16 µM
[54] = second compound 3.16 µM, first compound 10 µM
[55] = second compound 10 µM, first compound 0.0316 µM
[56] = second compound 10 µM, first compound 0.1 µM
[57] = second compound 10 µM, first compound 0.316 µM
[58] = second compound 10 µM, first compound 1 µM
[59] = second compound 10 µM, first compound 3.16 µM
[60] = second compound 10 µM, first compound 10 µM
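Further: spheroids exposed to agents for seven days before readout.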
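Wherever viability, T/C is given: percent of DMSO vehicle control wells so 100% = untreated growth.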

C=CC(=O)Nc1cc(Nc2nccc(-c3cn(C)c4ccccc34)n2)c(OC)cc1N(C)CCN(C)C + CNC(=O)c1ccc(Nc2nc(OC3CCCC3)c3c(-c4ccc5nc(C)oc5c4)c[nH]c3n2)c(OC)c1
> 300 nM: IC50 (second compound 0.0316 µM)
10.9 nM: IC50 (second compound 0.316 µM)
171 nM: IC50 (second compound 0.1 µM)
inactive: viability, T/C (second compound 0.0316 µM, first compound 0.000949 µM) 101% | viability, T/C (second compound 0.0316 µM, first compound 0.003 µM) 110% | viability, T/C [1] 86% | viability, T/C [2] 85.1% | viability, T/C [3] 81.9% | viability, T/C [4] 83.5% | viability, T/C (second compound 0.1 µM, first compound 0.000949 µM) 70.8% | viability, T/C (second compound 0.1 µM, first compound 0.003 µM) 71.8% | viability, T/C [5] 62.8% | viability, T/C [6] 60.1% | viability, T/C [7] 57.1% | viability, T/C [8] 44.8% | viability, T/C (second compound 0.316 µM, first compound 0.000949 µM) 54.5% | viability, T/C (second compound 0.316 µM, first compound 0.003 µM) 55.5% | viability, T/C [9] 46.9% | viability, T/C [10] 48% | viability, T/C [11] 40.5% | viability, T/C [12] 31.6% | viability, T/C (second compound 1 µM, first compound 0.000949 µM) 41.9% | viability, T/C (second compound 1 µM, first compound 0.003 µM) 39% | viability, T/C [13] 40.7% | viability, T/C [14] 34.4% | viability, T/C [15] 34.2% | viability, T/C [16] 26.8% | viability, T/C (second compound 3.16 µM, first compound 0.000949 µM) 36.6% | viability, T/C (second compound 3.16 µM, first compound 0.003 µM) 43.6% | viability, T/C [17] 37.6% | viability, T/C [18] 34.6% | viability, T/C [19] 28.5% | viability, T/C [20] 29% | viability, T/C (second compound 10 µM, first compound 0.000949 µM) 45.3% | viability, T/C (second compound 10 µM, first compound 0.003 µM) 39.3% | viability, T/C [21] 38.8% | viability, T/C [22] 31.4% | viability, T/C [23] 32.8% | viability, T/C [24] 27.7%
< 0.949 nM: IC50 (second compound 1 µM) | IC50 (second compound 3.16 µM) | IC50 (second compound 10 µM)

CC1(C)CCC(CN2CCN(c3ccc(C(=O)NS(=O)(=O)c4ccc(NCC5CCOCC5)c([N+](=O)[O-])c4)c(Oc4cnc5[nH]ccc5c4)c3)CC2)=C(c2ccc(Cl)cc2)C1 + CNC(=O)c1ccc(Nc2nc(OC3CCCC3)c3c(-c4ccc5nc(C)oc5c4)c[nH]c3n2)c(OC)c1
4210 nM: IC50 (second compound 0.1 µM)
< 31.6 nM: IC50 (second compound 1 µM) | IC50 (second compound 3.16 µM) | IC50 (second compound 10 µM)
5550 nM: IC50 (second compound 0.0316 µM)
inactive: viability, T/C [25] 102% | viability, T/C [26] 93.4% | viability, T/C [27] 98.7% | viability, T/C [28] 93% | viability, T/C [29] 89.9% | viability, T/C [31] 87.4% | viability, T/C [32] 94.4% | viability, T/C [33] 78.8% | viability, T/C [34] 80.2% | viability, T/C [35] 65.6% | viability, T/C [37] 67.7% | viability, T/C [38] 69% | viability, T/C [39] 64.7% | viability, T/C [40] 58.7% | viability, T/C [41] 47.3% | viability, T/C [43] 44.1% | viability, T/C [44] 45.9% | viability, T/C [45] 45.2% | viability, T/C [46] 42% | viability, T/C [47] 36.1% | viability, T/C [49] 39.5% | viability, T/C [50] 41.8% | viability, T/C [51] 43.5% | viability, T/C [52] 36.1% | viability, T/C [53] 37% | viability, T/C [54] 7.39% | viability, T/C [55] 36.7% | viability, T/C [56] 36.2% | viability, T/C [57] 41.5% | viability, T/C [58] 33.7% | viability, T/C [59] 32.6% | viability, T/C [60] 8.69%
2300 nM: IC50 (second compound 0.316 µM)
active: viability, T/C [30] 8.02% | viability, T/C [36] 7.13% | viability, T/C [42] 7.29% | viability, T/C [48] 7.06%

NC(=O)C(=Cn1cnc(-c2cc(C(F)(F)F)cc(C(F)(F)F)c2)n1)c1cncnc1 + CNC(=O)c1ccc(Nc2nc(OC3CCCC3)c3c(-c4ccc5nc(C)oc5c4)c[nH]c3n2)c(OC)c1
< 9.49 nM: IC50 (second compound 3.16 µM) | IC50 (second compound 10 µM)
655 nM: IC50 (second compound 0.316 µM)
active: viability, T/C (second compound 10 µM, first compound 3 µM) 9.32%
53.9 nM: IC50 (second compound 1 µM)
inactive: viability, T/C [1] 112% | viability, T/C [2] 88.8% | viability, T/C [3] 75.1% | viability, T/C [4] 66.7% | viability, T/C (second compound 0.0316 µM, first compound 0.949 µM) 62.1% | viability, T/C (second compound 0.0316 µM, first compound 3 µM) 30.9% | viability, T/C [5] 86.6% | viability, T/C [6] 89% | viability, T/C [7] 70.9% | viability, T/C [8] 68.6% | viability, T/C (second compound 0.1 µM, first compound 0.949 µM) 59.6% | viability, T/C (second compound 0.1 µM, first compound 3 µM) 32.5% | viability, T/C [9] 65.8% | viability, T/C [10] 67.9% | viability, T/C [11] 64.7% | viability, T/C [12] 59.9% | viability, T/C (second compound 0.316 µM, first compound 0.949 µM) 45.3% | viability, T/C (second compound 0.316 µM, first compound 3 µM) 25.5% | viability, T/C [13] 50.9% | viability, T/C [14] 56.4% | viability, T/C [15] 45.1% | viability, T/C [16] 42.8% | viability, T/C (second compound 1 µM, first compound 0.949 µM) 30.6% | viability, T/C (second compound 1 µM, first compound 3 µM) 13.1% | viability, T/C [17] 46% | viability, T/C [18] 51.4% | viability, T/C [19] 37.1% | viability, T/C [20] 38.9% | viability, T/C (second compound 3.16 µM, first compound 0.949 µM) 33% | viability, T/C (second compound 3.16 µM, first compound 3 µM) 16.6% | viability, T/C [21] 45.1% | viability, T/C [22] 48.4% | viability, T/C [23] 47.2% | viability, T/C [24] 39.8% | viability, T/C (second compound 10 µM, first compound 0.949 µM) 24.1%
1270 nM: IC50 (second compound 0.1 µM)
1070 nM: IC50 (second compound 0.0316 µM)

Nc1ccccc1NC(=O)c1ccc(CNC(=O)OCc2cccnc2)cc1 + CNC(=O)c1ccc(Nc2nc(OC3CCCC3)c3c(-c4ccc5nc(C)oc5c4)c[nH]c3n2)c(OC)c1
inactive: viability, T/C [25] 112% | viability, T/C [26] 113% | viability, T/C [27] 118% | viability, T/C [28] 93.5% | viability, T/C [29] 58.4% | viability, T/C [30] 41.4% | viability, T/C [31] 90.3% | viability, T/C [32] 89% | viability, T/C [33] 98.3% | viability, T/C [34] 92.2% | viability, T/C [35] 62.1% | viability, T/C [36] 42.8% | viability, T/C [37] 67.2% | viability, T/C [38] 69.2% | viability, T/C [39] 72.6% | viability, T/C [40] 75.3% | viability, T/C [41] 43.4% | viability, T/C [42] 28.8% | viability, T/C [43] 62.4% | viability, T/C [44] 57.5% | viability, T/C [45] 58.7% | viability, T/C [46] 51.7% | viability, T/C [47] 35.3% | viability, T/C [48] 26.2% | viability, T/C [49] 50.7% | viability, T/C [50] 47.7% | viability, T/C [51] 49.8% | viability, T/C [52] 44% | viability, T/C [53] 32.2% | viability, T/C [54] 25.5% | viability, T/C [55] 41% | viability, T/C [56] 47.3% | viability, T/C [57] 47.1% | viability, T/C [58] 37.5% | viability, T/C [59] 31.2% | viability, T/C [60] 25.7%
< 31.6 nM: IC50 (second compound 3.16 µM) | IC50 (second compound 10 µM)
1110 nM: IC50 (second compound 1 µM)
5450 nM: IC50 (second compound 0.0316 µM)
6500 nM: IC50 (second compound 0.1 µM)
2410 nM: IC50 (second compound 0.316 µM)
